From article PMC8400394, “Adsorption of Recombinant Human β-Defensin 2 and Two Mutants on Mesoporous Silica Nanoparticles and Its Effect against Clavibacter michiganensis subsp. michiganensis” (Nanomaterials, 2021)

How the values were obtained:
Assay type in all cases: cell-based, Clavibacter michiganensis subsp. michiganensis
Cmm [1] = assay: Antimicrobial activity of MSN/AMPs complexes in solid medium; details: plaque diffusion on MHB with Cmm; 5, 10, 15 µL; 24 h, 28 °C; MSN 5 mg/mL, AMPs 0.5 mg/mL; triplicate
Procedure: The antimicrobial activity of the MSN/AMPs complexes was evaluated both in solid and liquid media. For the solid medium, the adsorption process was carried out as described in the previous section. The pellet was resuspended in PBS (1 mL). Afterwards, different volumes of the MSN/AMPs mixture were deposited onto Petri dishes with MHB medium and Cmm (see antimicrobial activity test section and IC50 determination). The plates were incubated for 24 h at 28 °C, the diameter of the inhibition halos was measured. MSN (5 mg/mL) and AMPs (0.5 mg/mL) were employed as controls. These experiments were performed by triplicates.

Cmm [2] = assay: Determination of IC50 of the recombinant AMPs; details: Cmm in MHB, minimum concentration of AMP that inhibits 50% of the growth
Procedure: (§1) Cmm was cultivated in Mueller-Hinton broth (MHB) at […] for 16 h at 180 rpm. Employing 0.5 mL of the previous culture, 50 mL of fresh MHB were inoculated. The culture was maintained under the conditions mentioned above until the OD600 reached 0.2–0.3. 9.5 mL of MHB agar prewarmed to 37 °C were added to 0.5 mL of the culture. It was homogenized and then poured onto a Petri dish containing MHB agar to form a uniform layer of 2 mm. Once the surface was dry, different volumes (5, 10 and 15 μL) of the defensins under study (50 μM) were added to the surface. The plates were incubated for 24 h at 28 °C, then the formed inhibition halos were measured. CH3COOH (acid acetic)10 mM pH 2.4 and Tris 50 mM pH 8.4 were used both as negative controls. The IC50 was determined based on that reported by Tay and Liu. This measurement was defined as the minimum concentration of AMP that is required to inhibit 50% of the growth of Cmm.

Cmm [3] = assay: Effect of pepsin on AMPs and MSN/AMPs complexes (growth of Cmm after protease treatment); details: AMPs (1 mg/mL) treated with pepsin (1 mg/mL), 5:1 peptide:enzyme; then Cmm culture 28 °C, 24 h; CFU count; duplicate
Procedure: After removing the supernatant and drying the MSN/AMP complexes, 200 µL of the pepsin (1 mg/mL) were added and incubated at 37 °C for 16 h under constant shaking. The microtubes were then centrifuged at 5000× g for 10 min at 4 °C. The resulting pellet was washed twice with deionized water and centrifuged at 5000× g for 10 min at 4 °C between each wash. MSN/AMPs complexes were resuspended in 3 mL of diluted Cmm culture and incubated at 28 °C for 24 h at 180 rpm. After the incubation period, serial dilutions were performed up to 1 × 10^6 of which 100 µL were taken and Petri dishes were poured with 30 mL MHB medium. The plates were incubated at 28 °C for 72 h and the colonies were counted, bacterial growth was expressed as CFU/mL. Controls were prepared with MSN (5 mg/mL) in PBS and AMPs (1 mg/mL) treated with protease (1 mg/mL) in a 5:1 ratio (peptide:enzyme). The experiments for this assay were performed by duplicate.

Cmm [4] = assay: Antimicrobial activity of AMPs by the plaque diffusion method; details: plaque diffusion on MHB agar with Cmm; 5, 10 and 15 μL of 50 μM; CH3COOH 10 mM pH 2.4 and Tris 50 mM pH 8.4; 24 h, 28 °C; triplicate
Procedure: as §1

Substance: human β-defensin-2 [hβD2]
- antimicrobial activity in solid medium (inhibition halos) (Cmm [1]): greater inhibition than MNS/hβD2
- IC50 (Cmm [2]; AMP in CH3COOH 10 mM pH 2.4): 3.64 ± 0.33 µg/mL
- IC50 (Cmm [2]; AMP in Tris 50 mM pH 8.4): 3.61 ± 0.47 µg/mL
- Cmm growth inhibition after pepsin treatment, AMPs without the mesoporous matrix (Cmm [3]): 99.98%
- antimicrobial activity (inhibition halos) (Cmm [4]): exhibited inhibition halos
